{"source": "ChEMBL document CHEMBL5465560", "about": "“Selectivity Literature for EUbOPEN Chemogenomic Library” (2024)", "key": {"[1]": {"biological_target": "Homeodomain-interacting protein kinase 1 (Homo sapiens, UniProt Q86Z02)", "test": "Selectivity interaction (KinomeScan (DiscoverX)) EUB0000595a HIPK1", "details": "at 10 µM"}, "[2]": {"biological_target": "Dual specificity mitogen-activated protein kinase kinase 1 (Homo sapiens, UniProt Q02750)", "sequence (Q02750 whole entry)": "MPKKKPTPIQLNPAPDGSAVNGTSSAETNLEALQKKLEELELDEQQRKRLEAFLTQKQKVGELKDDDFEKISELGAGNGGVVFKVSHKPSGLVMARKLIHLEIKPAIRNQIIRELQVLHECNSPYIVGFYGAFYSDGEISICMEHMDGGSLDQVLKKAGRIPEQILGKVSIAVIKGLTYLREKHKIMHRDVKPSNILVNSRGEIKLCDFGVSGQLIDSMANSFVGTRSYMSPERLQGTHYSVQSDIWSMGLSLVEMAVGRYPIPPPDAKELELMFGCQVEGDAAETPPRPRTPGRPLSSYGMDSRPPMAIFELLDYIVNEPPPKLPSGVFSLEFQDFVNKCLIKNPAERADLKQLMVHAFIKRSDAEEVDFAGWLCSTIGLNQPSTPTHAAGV", "test": "Selectivity interaction (KinomeScan (DiscoverX)) EUB0000595a MAP2K1", "details": "at 10 µM"}, "[3]": {"biological_target": "T1, Dual specificity mitogen-activated protein kinase kinase 3 (Homo sapiens) (UniProt P46734)", "T1 sequence (whole entry)": "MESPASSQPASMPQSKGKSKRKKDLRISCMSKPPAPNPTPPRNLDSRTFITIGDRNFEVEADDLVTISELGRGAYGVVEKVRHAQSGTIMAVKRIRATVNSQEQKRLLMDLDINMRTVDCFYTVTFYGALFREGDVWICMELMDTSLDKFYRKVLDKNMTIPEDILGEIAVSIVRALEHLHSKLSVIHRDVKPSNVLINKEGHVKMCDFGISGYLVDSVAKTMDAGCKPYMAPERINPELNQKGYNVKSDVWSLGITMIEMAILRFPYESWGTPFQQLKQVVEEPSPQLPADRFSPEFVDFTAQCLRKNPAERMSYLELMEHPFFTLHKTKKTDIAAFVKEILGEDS", "test": "Selectivity interaction (KinomeScan (DiscoverX)) EUB0000045b MAP2K3"}, "[4]": {"biological_target": "Wee1-like protein kinase (Homo sapiens) (UniProt P30291)", "sequence (P30291 whole entry, looked up)": "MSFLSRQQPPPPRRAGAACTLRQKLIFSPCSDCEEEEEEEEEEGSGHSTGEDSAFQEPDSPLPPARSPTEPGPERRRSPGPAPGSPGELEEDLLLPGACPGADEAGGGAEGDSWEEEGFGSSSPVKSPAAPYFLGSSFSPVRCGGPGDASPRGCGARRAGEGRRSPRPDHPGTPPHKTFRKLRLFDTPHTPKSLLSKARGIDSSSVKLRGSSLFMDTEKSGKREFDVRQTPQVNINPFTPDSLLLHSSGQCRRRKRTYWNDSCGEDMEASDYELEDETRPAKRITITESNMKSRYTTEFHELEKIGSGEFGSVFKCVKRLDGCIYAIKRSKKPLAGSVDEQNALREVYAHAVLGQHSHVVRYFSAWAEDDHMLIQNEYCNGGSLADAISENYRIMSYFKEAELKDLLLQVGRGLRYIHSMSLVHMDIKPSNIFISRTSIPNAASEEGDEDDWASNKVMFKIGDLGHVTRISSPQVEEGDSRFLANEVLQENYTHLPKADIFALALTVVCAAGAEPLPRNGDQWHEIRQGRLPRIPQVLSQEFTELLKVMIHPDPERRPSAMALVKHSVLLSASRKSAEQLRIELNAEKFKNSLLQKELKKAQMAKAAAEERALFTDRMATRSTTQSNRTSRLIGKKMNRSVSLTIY", "test": "Selectivity interaction (KinomeScan (DiscoverX)) EUB0001079a WEE1", "details": "at 1 µM"}, "[5]": {"biological_target": "Phosphatidylinositol 4-phosphate 3-kinase C2 domain-containing subunit beta (Homo sapiens) (UniProt O00750)", "sequence (O00750 whole entry, the tested form may be a part)": "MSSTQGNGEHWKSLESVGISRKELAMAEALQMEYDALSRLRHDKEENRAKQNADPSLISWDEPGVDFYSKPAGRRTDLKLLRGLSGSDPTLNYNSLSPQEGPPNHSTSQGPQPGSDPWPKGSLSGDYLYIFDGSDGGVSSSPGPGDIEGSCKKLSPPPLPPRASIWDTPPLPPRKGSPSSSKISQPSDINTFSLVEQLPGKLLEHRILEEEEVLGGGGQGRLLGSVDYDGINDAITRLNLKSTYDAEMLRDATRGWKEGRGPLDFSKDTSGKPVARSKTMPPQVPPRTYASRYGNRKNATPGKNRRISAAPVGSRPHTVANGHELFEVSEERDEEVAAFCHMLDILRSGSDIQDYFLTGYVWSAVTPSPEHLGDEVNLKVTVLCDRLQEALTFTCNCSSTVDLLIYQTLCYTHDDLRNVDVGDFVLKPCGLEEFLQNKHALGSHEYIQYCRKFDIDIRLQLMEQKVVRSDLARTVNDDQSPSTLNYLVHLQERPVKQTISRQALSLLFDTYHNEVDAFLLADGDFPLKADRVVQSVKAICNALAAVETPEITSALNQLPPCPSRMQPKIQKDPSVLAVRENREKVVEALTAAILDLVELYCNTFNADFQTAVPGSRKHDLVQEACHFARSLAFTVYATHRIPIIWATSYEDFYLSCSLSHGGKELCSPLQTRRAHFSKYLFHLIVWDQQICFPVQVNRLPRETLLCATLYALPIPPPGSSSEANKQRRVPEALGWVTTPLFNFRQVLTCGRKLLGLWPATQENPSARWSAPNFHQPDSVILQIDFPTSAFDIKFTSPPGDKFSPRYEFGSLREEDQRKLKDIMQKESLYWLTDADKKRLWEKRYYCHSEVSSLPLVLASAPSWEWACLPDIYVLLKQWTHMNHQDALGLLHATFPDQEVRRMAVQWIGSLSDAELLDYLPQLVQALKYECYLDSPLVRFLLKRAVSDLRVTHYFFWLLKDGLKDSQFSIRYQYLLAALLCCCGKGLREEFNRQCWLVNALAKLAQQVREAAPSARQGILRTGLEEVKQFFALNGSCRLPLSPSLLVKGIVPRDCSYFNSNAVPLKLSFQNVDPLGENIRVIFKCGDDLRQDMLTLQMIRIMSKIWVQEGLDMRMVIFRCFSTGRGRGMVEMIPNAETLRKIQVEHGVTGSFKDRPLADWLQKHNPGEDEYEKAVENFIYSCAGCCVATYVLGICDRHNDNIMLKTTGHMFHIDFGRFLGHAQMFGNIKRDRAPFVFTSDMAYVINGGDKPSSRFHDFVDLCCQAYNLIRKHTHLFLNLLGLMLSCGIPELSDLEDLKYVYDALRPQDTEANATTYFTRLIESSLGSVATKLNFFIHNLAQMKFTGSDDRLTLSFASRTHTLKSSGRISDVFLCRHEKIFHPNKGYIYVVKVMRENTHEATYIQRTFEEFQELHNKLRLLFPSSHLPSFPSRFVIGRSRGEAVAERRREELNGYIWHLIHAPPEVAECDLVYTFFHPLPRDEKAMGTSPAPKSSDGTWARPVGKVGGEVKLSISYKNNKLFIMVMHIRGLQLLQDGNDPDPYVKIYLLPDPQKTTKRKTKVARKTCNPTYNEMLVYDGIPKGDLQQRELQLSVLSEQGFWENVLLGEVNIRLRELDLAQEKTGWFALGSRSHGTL", "test": "Selectivity interaction (KinomeScan (DiscoverX)) EUB0000666a PIK3C2B", "details": "at 10 µM"}, "Adenosine receptor A2a": {"biological_target": "Adenosine receptor A2a (Homo sapiens, UniProt P29274)", "sequence (P29274 whole entry)": "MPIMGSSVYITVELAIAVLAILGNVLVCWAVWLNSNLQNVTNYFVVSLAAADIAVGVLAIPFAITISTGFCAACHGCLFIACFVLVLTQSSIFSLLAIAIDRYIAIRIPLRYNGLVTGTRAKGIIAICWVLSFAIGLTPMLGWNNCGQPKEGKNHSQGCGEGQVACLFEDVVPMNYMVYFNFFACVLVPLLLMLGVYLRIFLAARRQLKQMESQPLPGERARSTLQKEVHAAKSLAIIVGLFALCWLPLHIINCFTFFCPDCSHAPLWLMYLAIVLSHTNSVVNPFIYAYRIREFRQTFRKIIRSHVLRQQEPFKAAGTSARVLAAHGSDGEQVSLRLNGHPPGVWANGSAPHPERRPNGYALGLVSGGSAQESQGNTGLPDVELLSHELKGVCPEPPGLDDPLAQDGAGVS", "test": "Selectivity interaction (Eurofins CEREP Diversity Profile (receptors and ion channels)) EUB0000279b ADORA2A", "details": "at 10 µM"}, "[6]": {"biological_target": "Interleukin-1 receptor-associated kinase 1 (Homo sapiens) (UniProt P51617)", "sequence (P51617 whole entry, looked up)": "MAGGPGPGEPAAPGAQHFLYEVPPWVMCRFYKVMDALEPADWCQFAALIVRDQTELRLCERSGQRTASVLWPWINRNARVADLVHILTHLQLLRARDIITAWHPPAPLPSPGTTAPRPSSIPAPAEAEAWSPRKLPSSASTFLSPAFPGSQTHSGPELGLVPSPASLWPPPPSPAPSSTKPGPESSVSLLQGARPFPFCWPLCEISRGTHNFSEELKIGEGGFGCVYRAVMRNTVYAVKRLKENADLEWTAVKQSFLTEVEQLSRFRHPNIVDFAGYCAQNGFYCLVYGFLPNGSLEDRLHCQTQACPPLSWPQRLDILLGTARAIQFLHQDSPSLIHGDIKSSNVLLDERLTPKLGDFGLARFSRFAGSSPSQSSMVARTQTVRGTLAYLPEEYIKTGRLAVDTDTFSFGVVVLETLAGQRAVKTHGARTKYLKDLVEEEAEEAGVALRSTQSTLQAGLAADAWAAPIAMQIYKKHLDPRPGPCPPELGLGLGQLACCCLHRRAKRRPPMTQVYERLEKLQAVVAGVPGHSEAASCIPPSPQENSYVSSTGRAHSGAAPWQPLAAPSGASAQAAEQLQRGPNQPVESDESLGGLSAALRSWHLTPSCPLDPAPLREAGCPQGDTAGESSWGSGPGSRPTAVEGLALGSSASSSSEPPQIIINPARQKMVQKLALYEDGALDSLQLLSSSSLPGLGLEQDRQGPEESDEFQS", "test": "Selectivity interaction (KinomeScan (DiscoverX)) EUB0001049a IRAK1", "details": "at 1 µM"}, "[7]": {"biological_target": "Macrophage-stimulating protein receptor (Homo sapiens, UniProt Q04912)", "test": "Selectivity interaction (Upstate Kinase Profiler service (Millipore)) EUB0000056c MST1R", "details": "at 1 µM"}, "[8]": {"biological_target": "T2, Muscarinic acetylcholine receptor M1 (Homo sapiens) (UniProt P11229)", "T2 sequence (whole entry)": "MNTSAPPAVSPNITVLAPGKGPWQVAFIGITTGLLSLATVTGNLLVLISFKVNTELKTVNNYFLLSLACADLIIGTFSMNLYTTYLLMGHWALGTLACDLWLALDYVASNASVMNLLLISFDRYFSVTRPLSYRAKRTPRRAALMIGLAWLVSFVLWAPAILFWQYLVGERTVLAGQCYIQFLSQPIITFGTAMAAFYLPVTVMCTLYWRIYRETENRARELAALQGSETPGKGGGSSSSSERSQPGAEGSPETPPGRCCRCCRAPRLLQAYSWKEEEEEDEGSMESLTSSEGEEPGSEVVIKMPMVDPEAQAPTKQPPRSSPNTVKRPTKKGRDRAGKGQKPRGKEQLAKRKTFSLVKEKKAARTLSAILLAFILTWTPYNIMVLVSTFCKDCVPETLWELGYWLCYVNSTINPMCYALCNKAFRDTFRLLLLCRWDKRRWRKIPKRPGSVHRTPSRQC", "test": "Selectivity interaction (Panel of kinases, GPCRs, ion channels and transporters (enzymatic assay)) EUB0000223bCl CHRM1"}, "[9]": {"biological_target": "T3, Mitogen-activated protein kinase 12 (Homo sapiens) (UniProt P53778)", "T3 sequence (whole entry)": "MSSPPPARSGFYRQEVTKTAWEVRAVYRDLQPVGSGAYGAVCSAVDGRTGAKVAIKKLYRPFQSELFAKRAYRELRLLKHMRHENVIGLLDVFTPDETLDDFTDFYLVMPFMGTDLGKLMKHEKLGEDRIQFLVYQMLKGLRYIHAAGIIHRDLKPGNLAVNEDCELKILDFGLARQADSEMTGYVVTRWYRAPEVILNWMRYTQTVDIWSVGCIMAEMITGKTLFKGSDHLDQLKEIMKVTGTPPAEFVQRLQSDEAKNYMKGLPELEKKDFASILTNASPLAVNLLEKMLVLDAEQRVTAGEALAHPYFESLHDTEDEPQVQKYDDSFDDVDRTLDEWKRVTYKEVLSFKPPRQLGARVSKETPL", "test": "Selectivity interaction (KinomeScan (DiscoverX)) EUB0001619a MAPK12", "details": "at 1 µM"}, "[10]": {"biological_target": "Casein kinase I isoform epsilon (Homo sapiens, UniProt P49674)", "test": "Selectivity interaction (KinomeScan (DiscoverX)) EUB0000607a CSNK1E", "details": "at 10 µM"}, "[11]": {"biological_target": "Non-receptor tyrosine-protein kinase TYK2 (Homo sapiens, UniProt P29597)", "sequence (P29597 whole entry)": "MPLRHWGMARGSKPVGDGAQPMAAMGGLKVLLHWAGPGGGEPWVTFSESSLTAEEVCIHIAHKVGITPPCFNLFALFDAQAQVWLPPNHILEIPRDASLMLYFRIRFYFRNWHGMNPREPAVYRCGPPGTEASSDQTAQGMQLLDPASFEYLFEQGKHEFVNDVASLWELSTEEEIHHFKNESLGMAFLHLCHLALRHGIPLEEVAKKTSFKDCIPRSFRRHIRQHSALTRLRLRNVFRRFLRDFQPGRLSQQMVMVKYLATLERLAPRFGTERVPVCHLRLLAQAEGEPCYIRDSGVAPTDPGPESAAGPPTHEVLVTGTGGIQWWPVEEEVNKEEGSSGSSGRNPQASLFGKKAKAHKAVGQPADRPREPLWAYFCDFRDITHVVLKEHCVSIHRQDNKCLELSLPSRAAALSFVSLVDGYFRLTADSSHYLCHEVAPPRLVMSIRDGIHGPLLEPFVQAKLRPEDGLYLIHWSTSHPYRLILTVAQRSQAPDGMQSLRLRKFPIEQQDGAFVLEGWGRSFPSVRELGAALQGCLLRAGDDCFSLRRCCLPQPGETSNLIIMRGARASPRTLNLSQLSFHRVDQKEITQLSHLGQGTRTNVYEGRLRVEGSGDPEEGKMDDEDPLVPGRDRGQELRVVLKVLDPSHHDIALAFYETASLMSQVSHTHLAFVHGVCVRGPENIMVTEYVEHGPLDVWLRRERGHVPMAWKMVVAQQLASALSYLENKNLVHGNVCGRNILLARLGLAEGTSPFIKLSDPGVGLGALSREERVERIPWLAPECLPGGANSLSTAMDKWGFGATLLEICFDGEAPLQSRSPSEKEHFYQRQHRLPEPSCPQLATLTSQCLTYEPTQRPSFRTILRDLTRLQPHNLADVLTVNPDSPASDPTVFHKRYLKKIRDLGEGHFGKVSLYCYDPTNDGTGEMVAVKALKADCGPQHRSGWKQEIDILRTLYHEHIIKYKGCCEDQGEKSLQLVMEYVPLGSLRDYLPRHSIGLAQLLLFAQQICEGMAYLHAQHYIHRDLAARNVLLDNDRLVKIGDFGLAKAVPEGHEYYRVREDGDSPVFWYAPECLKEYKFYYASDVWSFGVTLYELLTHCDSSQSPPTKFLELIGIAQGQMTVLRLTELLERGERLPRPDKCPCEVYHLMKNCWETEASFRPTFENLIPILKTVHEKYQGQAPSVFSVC", "test": "Selectivity interaction (KinomeScan (DiscoverX)) EUB0000607a TYK2", "details": "at 10 µM"}, "[12]": {"biological_target": "Calcium/calmodulin-dependent protein kinase type 1D (Homo sapiens) (UniProt Q8IU85)", "test": "Selectivity interaction (ActivX KiNativ screen (kinase selectivity in THP-1 cell lysates)) EUB0000639a CAMK1D", "format": "subcellular", "details": "lysate, at 0.04 µM"}, "[13]": {"biological_target": "T4, SNF-related serine/threonine-protein kinase (Homo sapiens) (UniProt Q9NRH2)", "T4 sequence (whole entry)": "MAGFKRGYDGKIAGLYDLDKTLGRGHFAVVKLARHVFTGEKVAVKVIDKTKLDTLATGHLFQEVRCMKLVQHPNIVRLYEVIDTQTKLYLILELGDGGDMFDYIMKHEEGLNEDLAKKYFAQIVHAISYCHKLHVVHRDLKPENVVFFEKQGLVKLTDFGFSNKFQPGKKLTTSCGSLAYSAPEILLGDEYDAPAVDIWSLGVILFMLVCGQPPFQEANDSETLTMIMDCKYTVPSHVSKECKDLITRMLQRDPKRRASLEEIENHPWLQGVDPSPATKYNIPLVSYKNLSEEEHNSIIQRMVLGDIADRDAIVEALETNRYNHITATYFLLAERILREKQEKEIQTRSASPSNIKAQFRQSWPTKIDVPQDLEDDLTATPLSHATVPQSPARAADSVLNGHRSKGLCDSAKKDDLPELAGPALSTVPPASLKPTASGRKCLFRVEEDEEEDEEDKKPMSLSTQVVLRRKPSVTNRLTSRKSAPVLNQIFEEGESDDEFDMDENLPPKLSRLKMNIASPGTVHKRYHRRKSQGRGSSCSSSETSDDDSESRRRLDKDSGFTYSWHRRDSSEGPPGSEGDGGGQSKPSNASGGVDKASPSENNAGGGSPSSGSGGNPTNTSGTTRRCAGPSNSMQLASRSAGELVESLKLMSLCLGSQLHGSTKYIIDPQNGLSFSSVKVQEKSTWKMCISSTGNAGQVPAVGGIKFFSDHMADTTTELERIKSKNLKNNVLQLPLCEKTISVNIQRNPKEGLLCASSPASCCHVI", "test": "Selectivity interaction (ActivX KiNativ screen (kinase selectivity in THP-1 cell lysates)) EUB0000639a SNRK", "format": "subcellular", "details": "lysate"}}}
{"smiles": "COCC(=O)NC/C=C/c1ccc2ncnc(Nc3ccc(Oc4ccc(C)nc4)c(C)c3)c2c1", "note": "[CP-724714]", "values": [{"measurement": "% of control", "setting": "[1]", "value": 88, "unit": "%"}, {"measurement": "% of control", "setting": "[2]", "value": 9.4, "unit": "%"}]}
{"smiles": "C=CC(=O)Nc1cc(-n2c(=O)ccc3cnc4ccc(-c5ccc(NS(C)(=O)=O)cc5)cc4c32)ccc1C", "values": [{"measurement": "% of control", "setting": "[3]; at 1 µM", "value": 100, "unit": "%"}, {"measurement": "% of control", "setting": "[3]; at 10 µM", "value": 69, "unit": "%"}]}
{"smiles": "Nc1cnc(N2CCc3cc(S(=O)(=O)Nc4c(F)cc(Cl)cc4F)cc(N4CCCC4=O)c32)nc1", "note": "[TP-020n]", "values": [{"measurement": "% of control", "setting": "[4]", "value": 72, "unit": "%"}]}
{"smiles": "O=C(NOC[C@H](O)CO)c1ccc(F)c(F)c1Nc1ccc(I)cc1F", "values": [{"measurement": "% of control", "setting": "[5]", "value": 100, "unit": "%"}]}
{"smiles": "CC(=O)c1cc(-c2ccccc2OCC2CC2)c2ncccn12", "values": [{"measurement": "% of control", "setting": "Adenosine receptor A2a", "value": 80, "unit": "%"}]}
{"smiles": "COc1cc(Nc2nc(C)cc(-c3cnn4nc(OC)ccc34)n2)cc(C(F)(F)F)c1", "values": [{"measurement": "% of control", "setting": "[6]", "value": 91, "unit": "%"}]}
{"smiles": "Cc1ccc(-c2ccc3c(ccc4sc5c(c43)NC[C@@H](C)NC5=O)n2)cn1", "values": [{"measurement": "% of inhibition", "setting": "[7]", "value": 20, "unit": "%"}]}
{"smiles": "COc1cc(C(=O)N2CC[C@@H](O)[C@@H](N)C2)cc2nc(-c3cc4ccccc4n3CC3CC3)n(C)c12", "values": [{"measurement": "pXC50", "setting": "[8]", "value": 5.3, "unit": "M"}]}
{"smiles": "N#Cc1cccc(-c2c[nH]c3ncnc(N4CCOCC4)c23)c1", "values": [{"measurement": "% of control", "setting": "[9]", "value": 100, "unit": "%"}]}
{"smiles": "CNC(=O)Nc1ccc(-c2nc(N3CC4CCC(C3)O4)c3cnn(C4CCC5(CC4)OCCO5)c3n2)cc1", "values": [{"measurement": "% of control", "setting": "[10]", "value": 39, "unit": "%"}, {"measurement": "% of control", "setting": "[11]", "value": 100, "unit": "%"}]}
{"smiles": "CC[C@@H]1[C@H](F)C(=O)N[C@@H]1COc1nccc2cc(C(N)=O)c(OC)cc12", "note": "[ZIMLOVISERTIB]", "values": [{"measurement": "% of inhibition", "setting": "[12]", "value": -15.2, "unit": "%"}, {"measurement": "% of inhibition", "setting": "[13]; at 0.01 µM", "value": -4.2, "unit": "%"}, {"measurement": "% of inhibition", "setting": "[13]; at 0.04 µM", "value": 1.9, "unit": "%"}, {"measurement": "% of inhibition", "setting": "[13]; at 0.2 µM", "value": 21.5, "unit": "%"}, {"measurement": "% of inhibition", "setting": "[13]; at 1 µM", "value": 3.6, "unit": "%"}, {"measurement": "% of inhibition", "setting": "[13]; at 5 µM", "value": 23.9, "unit": "%"}]}
